Earlier results on 1 compound are cited in patent US8106028B2, “MicroRNA-21 antagonists and its target PDCD4 for use in the treatment of a glioma” (Trustees of Dartmouth College, priority 2009, dated 2012).

The data set has as its system PDCD4. Conditions: breast cancer cells; Afonja, et al. (2004).

As to `CC1(C)CCC(C)(C)c2cc(C(=O)Nc3ccc(C(=O)O)cc3)ccc21` [Am580], the “expression of PDCD4” value is on record as “stimulate the expression of PDCD4”.
